target: T1, Acetylcholinesterase (Mus musculus, UniProt P21836); experiment: Inhibition of wild type mouse AChE expressed in HEK293 cells using ATCh as substrate; type: cell-based
T1 sequence (P21836 whole entry): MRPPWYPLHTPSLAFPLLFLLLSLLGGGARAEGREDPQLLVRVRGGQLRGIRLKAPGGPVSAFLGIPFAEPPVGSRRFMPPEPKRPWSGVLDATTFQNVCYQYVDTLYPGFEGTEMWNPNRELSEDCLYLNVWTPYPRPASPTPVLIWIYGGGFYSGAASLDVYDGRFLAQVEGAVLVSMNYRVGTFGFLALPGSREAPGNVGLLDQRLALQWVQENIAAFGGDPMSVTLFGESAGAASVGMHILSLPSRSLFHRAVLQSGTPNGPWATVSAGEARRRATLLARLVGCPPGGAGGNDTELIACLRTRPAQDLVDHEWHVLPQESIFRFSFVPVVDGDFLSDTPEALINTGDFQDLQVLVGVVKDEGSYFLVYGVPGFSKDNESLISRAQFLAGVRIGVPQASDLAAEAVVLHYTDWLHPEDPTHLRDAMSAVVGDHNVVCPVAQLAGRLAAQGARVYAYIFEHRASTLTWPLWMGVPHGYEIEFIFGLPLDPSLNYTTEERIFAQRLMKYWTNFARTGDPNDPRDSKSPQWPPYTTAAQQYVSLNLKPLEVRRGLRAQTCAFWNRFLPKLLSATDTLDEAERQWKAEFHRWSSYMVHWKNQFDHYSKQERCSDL

Q: Which IC50 does the source give for `CC[N+](C)(CC)CCC[n+]1c(-c2ccccc2)c2cc(N)ccc2c2ccc(N)cc21` [PROPIDIUM] here?
A: Its IC50 is 1.1 µM.

target: T1, Acetylcholinesterase

Q: `C/C=C1\[C@H]2C=C(C)C[C@]1(N)c1ccc(=O)[nH]c1C2` [HUPERZINE A] was tested. Which IC50 did it give?
A: Its IC50 is 0.082 µM.

target: T1, Acetylcholinesterase; experiment: Inhibition of mouse recombinant AChE using acetylthiocholine iodide as substrate by Ellman's method

Q: Which IC50 does the source give for `CCN(CC)CCNS(=O)(=O)c1ccc(Cl)cc1` here?
A: The IC50 was 88 µM.

Q: With `CCN(CC)CCNS(=O)(=O)c1cccc(Cl)c1` as the compound, how does the IC50 read?
A: The IC50 was 18 µM.

Q: For `CCN(CC)CCNS(=O)(=O)c1ccc(OC)cc1`, which IC50 is on record?
A: The IC50 was 119 µM.

Q: How did the IC50 turn out when `CCN(CC)CCNS(=O)(=O)c1ccc(C)cc1` was run?
A: Its IC50 is 135 µM.

Q: How did the IC50 turn out when `CCN(CC)CCNS(=O)(=O)c1ccc(F)cc1` was run?
A: The IC50 was 62 µM.

Q: How did the IC50 turn out when `CCN(CC)CCNS(=O)(=O)c1ccc([N+](=O)[O-])cc1` was run?
A: Its IC50 is 95 µM.

Q: For `CCN(CC)CCNS(=O)(=O)c1ccc(Cl)cc1F`, which IC50 is on record?
A: The IC50 was 91 µM.

Q: For `CCN(CC)CCNS(=O)(=O)c1ccc(F)c(F)c1`, which IC50 is on record?
A: The IC50 was 50 µM.

Q: `CCN(CC)CCNS(=O)(=O)c1cccc2ccccc12` was tested. Which IC50 did it give?
A: Its IC50 is 44 µM.

Q: Which IC50 does the source give for `CCN(CC)CCNS(=O)(=O)c1ccc2ccccc2c1` here?
A: The IC50 was > 700 µM.

Q: How did the IC50 turn out when `CCN(CC)CCNS(=O)(=O)c1ccc(-c2ccc(Cl)cc2)cc1` was run?
A: The IC50 was > 700 µM.

Q: With `CCN(CC)CCNS(=O)(=O)Cc1ccccc1` as the compound, how does the IC50 read?
A: Its IC50 is 139 µM.

Q: For `CCN(CC)CCNS(=O)(=O)Cc1ccc(F)cc1`, which IC50 is on record?
A: The IC50 was 40 µM.

Q: `CCN(CC)CCNS(=O)(=O)Cc1ccc(Cl)cc1` was tested. Which IC50 did it give?
A: Its IC50 is 12 µM.

Q: For `CCN(CC)CCNS(=O)(=O)Cc1ccc(C(F)(F)F)cc1`, which IC50 is on record?
A: The IC50 was 12 µM.

Q: With `CCN(CC)CCNS(=O)(=O)Cc1ccc(Br)cc1` as the compound, how does the IC50 read?
A: Its IC50 is 10 µM.

Q: How did the IC50 turn out when `CCN(CC)CCNS(=O)(=O)Cc1ccc(Cl)c(Cl)c1` was run?
A: Its IC50 is 7 µM.

Q: `CCN(CC)CCNS(=O)(=O)c1ccccc1` was tested. Which IC50 did it give?
A: The IC50 was 31 µM.

Q: `CCN(CC)CCNS(=O)(=O)c1ccccc1F` was tested. Which IC50 did it give?
A: The IC50 was 41 µM.

Q: For `CCN(CC)CCNS(=O)(=O)c1cccc(OC)c1`, which IC50 is on record?
A: Its IC50 is 7 µM.

Q: `CCN(CC)CCNS(=O)(=O)c1cccc(C(F)(F)F)c1` was tested. Which IC50 did it give?
A: Its IC50 is 22 µM.

target: T1, Acetylcholinesterase; experiment: Binding affinity to mouse AChE by isothermal titration calorimetry

Q: `CCN(CC)CCNS(=O)(=O)c1cccc(Cl)c1` was tested. Which Kd did it give?
A: The Kd was 44.4 µM.

Q: For `CCN(CC)CCNS(=O)(=O)Cc1ccc(Cl)cc1`, which Kd is on record?
A: Its Kd is 11.1 µM.

Q: For `CCN(CC)CCNS(=O)(=O)Cc1ccc(C(F)(F)F)cc1`, which Kd is on record?
A: Its Kd is 9.2 µM.

Q: With `CCN(CC)CCNS(=O)(=O)c1cccc(C(F)(F)F)c1` as the compound, how does the Kd read?
A: Its Kd is 14.8 µM.
